Results published in patent US20100249145A1, “Inhibitors of VEGF Receptor and HGF Receptor Signaling” (Methylgene, Inc., priority 2005, published 2010).
Like-named read-outs stand apart in the source and are kept apart here.

Key:
[1] = biological target: T1, recombinant human c-Met/HGF receptor (Homo sapiens, UniProt P08581); assay: In vitro receptor tyrosine kinase assay (DELFIA), c-Met/HGF receptor; assay type: biochemical; conditions: ATP 10 uM, enzyme 25 nM
T1 construct: His tag (histidine tag from pBlueBacHis2A); made in house; host or cells: Hi-5 cells (Trichoplusia ni), recombinant baculovirus

[2] = biological target: T2, VEGF receptor KDR (Homo sapiens, UniProt P35968); assay: In vitro receptor tyrosine kinase assay (DELFIA), VEGF receptor KDR; assay type: biochemical; conditions: ATP 0.6 uM, enzyme 5 nM
T2 construct: made in house; host or cells: Sf9 cells (Spodoptera frugiperda), recombinant baculovirus
From the text: In Vitro Receptor Tyrosine Kinase Assays (c-Met/HGF receptor and VEGF Receptor KDR)
In the case of VEGF receptor KDR a 1.6-kb cDNA corresponding to the catalytic domain of VEGFR2 or KDR (Genbank accession number AF035121 amino acid 806 to 1356) was cloned into the Pst I site of the pDEST20 Gateway vector (Invitrogen) for the production of a GST-tagged version of that enzyme.
The GST-VEGFR2806-1356 protein was expressed in Sf9 cells (Spodoptera frugiperda) upon infection with recombinant baculovirus construct.
The supernatant was loaded onto a GST-agarose column (Sigma) equilibrated with PBS pH 7.3. Following a four column volume (CV) wash with PBS pH 7.3+1% Triton X-100 and 4 CV wash with buffer B (50 mM Tris pH 8.0, 20% glycerol and 100 mM NaCl), bound proteins were step eluted with 5 CV of buffer B supplemented with 5 mM DTT and 15 mM glutathion. […] Final GST-VEGFR2806-1356 protein preparations concentrations were about 0.7 mg/ml with purity approximating 70%.

[3] = test system: A549; assay: A549 wound healing inhibition (HGF dependent migration); assay type: cell-based; conditions: Homo sapiens, Table 31, read-out: A549 wound healing inbib IC50
From the text: (§1) HGF has well known activity in terms of inducing scattering and migration (wound healing) (Wells et al., Cell Motil Cytoskeleton. 2005 November 62(3):180-94; Miura et al., Urology 2001 December 58(6):1064-9; Nishimura et al., Int J. Urol. 1998 May 5(3):276-81; Wang et al., Mol Cancer Ther. 2003 November; 2(11):1085-92; and Christensen et al., Cancer Res. 2003 Nov. 1; 63(21):7345-55).

[4] = test system: DU145; assay: DU145 scattering inhibition (HGF dependent scattering); assay type: cell-based; conditions: Homo sapiens, DU-145, Table 31, read-out: DU145 scattering inhib IC50
From the text: as §1

[5] = biological target: TPR-MET fusion protein (Homo sapiens, UniProt P08581); assay: C-Met phosphorylation cell-based assay (MNNGHOS cells, immunoblot); conditions: Table 30, 3 hours treatment, read-out: C-Met cell-based Y1230-34-35 tpr-met inhibition (IC50)
From the text: C-Met Phosphorylation Cell-Based Assay

[6] = test system: A549; assay: In vivo solid tumor disease model, A549 xenograft; parameters: species or system female athymic CD 1 mice
[7] = test system: U87 cells; assay: In vivo solid tumor disease model, U87 xenograft; parameters: species or system female athymic CD 1 mice; conditions: U87MG; 100 mg/kg once daily PO; vehicle 5% DMSO - 1% Tween-80 in water; 14 days
From the text: In Vivo Solid Tumor Disease Model
This test measures the capacity of compounds to inhibit solid tumor growth.
Tumor xenografts were established in the flank of female athymic CD 1 mice (Charles River Inc.), by subcutaneous injection of 1×10^6U87, A431 or SKLMS cells/mouse. Once established, tumors were then serially passaged s.c. in nude mice hosts. Tumor fragments from these host animals were used in subsequent compound evaluation experiments. For compound evaluation experiments female nude mice weighing approximately 20 g were implanted s.c. by surgical implantation with tumor fragments of ˜30 mg from donor tumors. When the tumors were approximately 100 mm^3 in size (˜7-10 days following implantation), the animals were randomized a separated into treatment and control groups. Each group contained 6-8 tumor-bearing mice, each of which was ear-tagged and followed individually throughout the experiment
Mice were weighed and tumor measurements are taken by calipers three times weekly, starting on Day 1. These tumor measurements were converted to tumor volume by the well-known formula (L+W/4)^34/3π. The experiment was terminated when the control tumors reached a size of approximately 1500 mm^3. In this model, the change in mean tumor volume for a compound treated group/the change in mean tumor volume of the control group (non-treated or vehicle treated)×100 (ΔT/ΔC) was subtracted from 100 to give the percent tumor growth inhibition (% TGI) for each test compound. In addition to tumor volumes, body weight of animals were monitored twice weekly for up to 3 weeks.
Regiment of administration was once daily.

[8] = Table 30, read-out: C-Met (enz.) (IC50)
[9] = Table 30, read-out: VEGF(enz.) (IC50)

T2 sequence (P35968 806-1356): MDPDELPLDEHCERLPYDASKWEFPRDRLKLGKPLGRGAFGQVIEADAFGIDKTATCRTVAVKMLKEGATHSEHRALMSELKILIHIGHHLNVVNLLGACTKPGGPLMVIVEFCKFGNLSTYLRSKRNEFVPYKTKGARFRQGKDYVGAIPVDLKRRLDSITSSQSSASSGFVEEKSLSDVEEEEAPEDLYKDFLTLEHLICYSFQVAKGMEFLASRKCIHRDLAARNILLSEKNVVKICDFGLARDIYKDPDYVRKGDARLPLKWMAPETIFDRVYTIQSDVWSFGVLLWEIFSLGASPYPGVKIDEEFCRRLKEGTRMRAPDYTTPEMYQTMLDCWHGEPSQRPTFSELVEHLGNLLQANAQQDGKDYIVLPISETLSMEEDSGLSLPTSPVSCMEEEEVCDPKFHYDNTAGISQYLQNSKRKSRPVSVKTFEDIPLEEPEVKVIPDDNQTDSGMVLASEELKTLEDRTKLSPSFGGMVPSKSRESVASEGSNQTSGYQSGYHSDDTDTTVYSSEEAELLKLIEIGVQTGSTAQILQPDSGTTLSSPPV
T1 sequence (P08581 1078-1337): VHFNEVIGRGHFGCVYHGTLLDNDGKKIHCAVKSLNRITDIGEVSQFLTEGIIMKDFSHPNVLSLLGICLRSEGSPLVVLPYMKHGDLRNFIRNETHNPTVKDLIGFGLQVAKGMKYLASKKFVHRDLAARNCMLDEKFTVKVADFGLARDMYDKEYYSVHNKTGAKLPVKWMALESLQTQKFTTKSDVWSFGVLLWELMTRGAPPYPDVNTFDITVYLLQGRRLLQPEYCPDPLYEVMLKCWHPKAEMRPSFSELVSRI
Sequence of TPR-MET fusion protein (P08581 with tags, fused parts or gaps): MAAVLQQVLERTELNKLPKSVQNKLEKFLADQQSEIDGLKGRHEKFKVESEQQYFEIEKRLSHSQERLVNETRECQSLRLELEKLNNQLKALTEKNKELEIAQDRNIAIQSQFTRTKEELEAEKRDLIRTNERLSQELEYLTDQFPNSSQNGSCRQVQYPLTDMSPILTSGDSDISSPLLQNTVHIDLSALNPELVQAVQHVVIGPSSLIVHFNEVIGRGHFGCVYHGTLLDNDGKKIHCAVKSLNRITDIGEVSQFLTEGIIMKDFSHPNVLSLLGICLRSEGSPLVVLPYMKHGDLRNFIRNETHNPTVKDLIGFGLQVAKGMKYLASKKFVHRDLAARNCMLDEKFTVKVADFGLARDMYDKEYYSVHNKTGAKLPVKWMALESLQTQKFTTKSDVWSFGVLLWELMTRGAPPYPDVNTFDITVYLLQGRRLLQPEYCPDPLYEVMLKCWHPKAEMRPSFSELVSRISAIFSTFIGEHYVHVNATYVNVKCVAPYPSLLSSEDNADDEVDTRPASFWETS

| IC50 ([1]; Table 31, read-out: CMet ic50) [nM] | IC50 ([2]; Table 31, read-out: VEGFR IC50) [nM] | IC50 [3] [nM] | IC50 [4] [nM] | Compound | further results |
| --- | --- | --- | --- | --- | --- |
| 50 to 250 | 50 to 250 | > 10000 | 1000 to 5000 | COc1ccccc1CC(=O)NC(=S)Nc1ccc(Oc2ccnc3cc(-c4cn(CC(N)=O)cn4)sc23)c(F)c1 | – |
| < 50 | < 50 | < 1000 | < 1000 | CCn1ccnc1-c1cc2nccc(Oc3ccc(NC(=S)NC(=O)Cc4ccc(F)cc4)cc3F)c2s1 | – |
| < 50 | < 50 | < 1000 | < 1000 | Cn1ccnc1-c1cc2nccc(Oc3ccc(NC(=S)NC(=O)Cc4ccc(F)cc4)cc3F)c2s1 | – |
| < 50 | < 50 | < 1000 | < 1000 | Cc1ccccc1CC(=O)NC(=S)Nc1ccc(Oc2ccnc3cc(-c4nccn4C)sc23)c(F)c1 | – |
| < 50 | 250 to 500 | < 1000 | < 1000 | Cc1ccccc1CC(=O)NC(=S)Nc1ccc(Oc2ccnc3cc(C4=CCN(C)CC4)sc23)c(F)c1 | – |
| < 50 | 50 to 250 | < 1000 | < 1000 | O=C(Cc1ccccc1)NC(=S)Nc1ccc(Oc2ccnc3cc(-c4cccc[n+]4[O-])sc23)c(F)c1 | – |
| < 50 | < 50 | < 1000 | < 1000 | CN1CCN(Cc2ccc(-c3cc4nccc(Oc5ccc(NC(=S)NC(=O)Cc6ccc(F)cc6)cc5F)c4s3)cc2)CC1 | – |
| < 50 | < 50 | < 1000 | < 1000 | C#Cc1ccccc1CC(=O)NC(=S)Nc1ccc(Oc2ccnc3cc(-c4nccn4CC)sc23)c(F)c1 | – |
| 50 to 250 | 50 to 250 | 1000 to 5000 | > 10000 | C#Cc1ccc(CC(=O)NC(=S)Nc2ccc(Oc3ccnc4cc(-c5nccn5C)sc34)c(F)c2)cc1 | – |
| < 50 | < 50 | < 1000 | < 1000 | C#Cc1ccccc1CC(=O)NC(=S)Nc1ccc(Oc2ccnc3cc(-c4nccn4C)sc23)c(F)c1 | – |
| < 50 | < 50 | < 1000 | < 1000 | C#Cc1ccccc1CC(=O)NC(=S)Nc1ccc(Oc2ccnc3cc(-c4cn(CCN5CCCC5)cn4)sc23)c(F)c1 | – |
| < 50 | 50 to 250 | < 1000 | < 1000 | C#Cc1ccccc1CC(=O)NC(=S)Nc1ccc(Oc2ccnc3cc(C4=CCN(C)CC4)sc23)c(F)c1 | – |
| 50 to 250 | < 50 | 1000 to 5000 | 1000 to 5000 | C#Cc1ccc(CC(=O)NC(=S)Nc2ccc(Oc3ccnc4cc(-c5cn(CC)cn5)sc34)c(F)c2)cc1 | – |
| 50 to 250 | < 50 | > 10000 | > 10000 | C#Cc1ccc(CC(=O)NC(=S)Nc2ccc(Oc3ccnc4cc(-c5ccc(CN(C)CCO)cc5)sc34)c(F)c2)cc1 | – |
| < 50 | < 50 | < 1000 | < 1000 | CCn1cnc(-c2cc3nccc(Oc4ccc(NC(=S)NC(=O)Cc5cccc(F)c5)cc4F)c3s2)c1 | – |
| < 50 | 50 to 250 | < 1000 | < 1000 | Cn1cnc(-c2cc3nccc(Oc4ccc(NC(=S)NC(=O)Cc5cccc(F)c5)cc4F)c3s2)c1 | – |
| – | – | – | – | 1-(4-(2- (morpholinylcarbamoyl) thieno[3,2- b]pyridin-7-yloxy)-3- fluorophenyl)-3-(2- phenylacetyl)thiourea [Example 3] | IC50 [1, 8]: 50 to 250 nM; IC50 [2, 9]: 250 to 500 nM; IC50 [5]: 50 to 250 nM |
| – | – | – | – | 1-(4-(6-(4-N- Methylpiperazylcarbamoyl) thieno[3,2- d]pyrimidin-4-yloxy)- 3-fluorophenyl)-3-(2- phenylacetyl)thiourea [Example 24] | IC50 [1, 8]: 50 to 250 nM; IC50 [2, 9]: 250 to 500 nM; IC50 [5]: > 500 nM |
| – | – | – | – | O=C(Cc1ccccc1)NC(=S)Nc1ccc(Oc2ccnc3cc(C(=O)NCCN4CCOCC4)sc23)c(F)c1 [Example 2, l-(4-(2-(2-morpholinoethylcarbamoyl)thieno[3,2-b]pyridin-7-yloxy)-3-fluorophenyl)-3-(2-phenylacetyl)thiourea] | IC50 [1, 8]: 50 to 250 nM; IC50 [2, 9]: < 50 nM; IC50 [5]: 50 to 250 nM |
| – | – | – | – | O=C(Cc1ccccc1)NC(=S)Nc1ccc(Oc2ccnc3cc(C(=O)N4CC[C@H](O)C4)sc23)c(F)c1 [Example 39, (S)-N-(3-Fluoro-4-(2-(3-hydroxypyrrolidine-1-carbonyl)thieno[3,2-b]pyridin-7-yloxy)phenylcarbamothioyl)-2-phenylacetamide] | Tumor Growth Inhibition (%) ([6]; 30 mg/kg once daily IP, vehicle DMSO, 14 days): b (% TGI in the range of 50-74) |
| – | – | – | – | O=C(Cc1ccccc1)NC(=S)Nc1ccc(Oc2ccnc3cc(-c4ccc(CN5CCOCC5)cc4)sc23)c(F)c1 [Example 56, 1-(3-Fluoro-4-(2-(4-(morpholinomethyl)phenyl)thieno[3,2-b]pyridin-7-yloxy)phenyl)-3-(2-phenylacetyl)thiourea] | Tumor Growth Inhibition (%) ([6]; 30 mg/kg once daily IP, vehicle DMSO, 12 days): c (% TGI in the range of 25-49) |
| – | – | – | – | CCn1ccnc1-c1cc2nccc(Oc3ccc(NC(=S)NC(=O)Cc4ccccc4)cc3F)c2s1 [Example 73, N-(4-(2-(1-Ethyl-1H-imidadzol-2-yl)thieno[3,2-b]pyridin-7-yloxy)-3-fluorophenylcarbamothioyl)-2-phenylacetamide] | Tumor Growth Inhibition (%) [7]: c (% TGI in the range of 25-49) |
| – | – | – | – | Cn1cnc(-c2cc3nccc(Oc4ccc(NC(=S)NC(=O)Cc5ccccc5)cc4)c3s2)c1 [Example 201, N-(4-(2-(1-Methyl-1H-imidazol-4-yl)thieno[3,2-b]pyridin-7-yloxy)phenylcarbamothioyl)-2-phenylacetamide] | Tumor Growth Inhibition (%) ([6]; 30 mg/kg once daily IP, vehicle DMSO, 10 days): c (% TGI in the range of 25-49); Tumor Growth Inhibition (%) ([6]; 75 mg/kg once daily PO, vehicle 5% DMSO - 1% Tween-80 in water, 10 days): c (% TGI in the range of 25-49) |
| < 50 | < 50 | < 1000 | < 1000 | Cn1cnc(-c2cc3nccc(Oc4ccc(NC(=S)NC(=O)Cc5ccc(F)cc5F)cc4F)c3s2)c1 [drawing 434] | – |
| < 50 | < 50 | < 1000 | < 1000 | Cn1cnc(-c2cc3nccc(Oc4ccc(NC(=S)NC(=O)Cc5ccc(F)cc5)cc4F)c3s2)c1 [drawing 440] | – |
| < 50 | < 50 | < 1000 | < 1000 | CCn1cnc(-c2cc3nccc(Oc4ccc(NC(=S)NC(=O)Cc5ccccc5C)cc4F)c3s2)c1 [drawing 441] | – |
| < 50 | < 50 | < 1000 | < 1000 | C#Cc1ccccc1CC(=O)NC(=S)Nc1ccc(Oc2ccnc3cc(-c4cn(C)cn4)sc23)c(F)c1 [drawing 451] | – |
| < 50 | < 50 | < 1000 | < 1000 | C#Cc1ccccc1CC(=O)NC(=S)Nc1ccc(Oc2ccnc3cc(-c4cn(CC)cn4)sc23)c(F)c1 [drawing 455] | – |
| – | – | – | – | C#Cc1ccccc1CC(=O)NC(=S)Nc1ccc(Oc2ccnc3cc(-c4cn(CC)cn4)sc23)c(F)c1 [drawing 496] | Tumor Growth Inhibition (%) ([6]; 40 mg/kg once daily p.o., 14 days): b (% TGI in the range of 50-74) |
